Test results from patent US20090011410A1, “METHOD FOR TAILORING ADMINISTRATION OF DRUGS BY QUANTITATION OF MRNA” (priority 2004, published 2009).

Test system: NOXA mRNA
Assay: drug-induced NOXA mRNA expression in whole blood of healthy adults (SYBR green PCR screen)
Assay type: cell-based, human
Settings: 20 μM BLM or 100 μM VP-16, 4 hours at 37° C.; degree less than PUMA (FIG. 6)
Procedure: In 8-well strip microtubes, 1.4 μl of 50× concentrations of drugs or controls (phosphate buffered saline (PBS) or DMSO) were added, and stored at −20° C. until use. […] Seventy μl of fresh heparinized whole blood was added into each well in triplicate, and incubated at 37° C. for 2-8 hours with the cap closed. For radiation treatment, blood was stimulated at designated doses using cesium-137. After each treatment, 50 μl of whole blood was transferred to filterplates as described below.
The mRNA and cDNA were prepared from whole blood. In brief, home-made 96-well filterplates were placed over collection plates, and 150 μl 5 mM Tris, pH 7.4, was applied. Following centrifugation at 120×g for 1 min at 4° C., 50 μl of blood samples were applied to each well and immediately centrifuged at 120×g for 2 min at 4° C., followed by washing of each well with 300 μl PBS once with centrifugation at 2000×g for 5 min at 4° C. […] The Ct was determined by analytical software (SDS, ABI). […]
Quantitation of various mRNAs was conducted using the following method. […]

Compound	NOXA induction
COc1cc([C@@H]2c3cc4c(cc3[C@@H](O[C@@H]3O[C@@H]5CO[C@@H](C)O[C@H]5[C@H](O)[C@H]3O)[C@H]3COC(=O)[C@H]23)OCO4)cc(OC)c1O [VP-16, etoposide]	induced in all individuals
bleomycin [BLM]	induced in all individuals
